Data as given in US12281119B2, “Imidazo[2,1-f][1,2,4]triazin-4-amine derivatives as TLR7 agonist” (BEIGENE, LTD., priority 2019, dated 2025).
pEC50: −log10 of the molar value.

Columns and labels:
human TLR 8 protein = biological target: T1, human TLR 8 protein (Homo sapiens, UniProt Q9NR97); test: TLR8 stimulation determined using HEK-Blue Detection; format: cell-based; settings: HEK-Blue hTLR8 cells, 16 hr, relative to Resiquimod or Motolimod maximum
T1 construct: expressed in transfected cells; host or cells: HEK293 (HEK-Blue hTLR8)
T1 sequence (Q9NR97 27-1041): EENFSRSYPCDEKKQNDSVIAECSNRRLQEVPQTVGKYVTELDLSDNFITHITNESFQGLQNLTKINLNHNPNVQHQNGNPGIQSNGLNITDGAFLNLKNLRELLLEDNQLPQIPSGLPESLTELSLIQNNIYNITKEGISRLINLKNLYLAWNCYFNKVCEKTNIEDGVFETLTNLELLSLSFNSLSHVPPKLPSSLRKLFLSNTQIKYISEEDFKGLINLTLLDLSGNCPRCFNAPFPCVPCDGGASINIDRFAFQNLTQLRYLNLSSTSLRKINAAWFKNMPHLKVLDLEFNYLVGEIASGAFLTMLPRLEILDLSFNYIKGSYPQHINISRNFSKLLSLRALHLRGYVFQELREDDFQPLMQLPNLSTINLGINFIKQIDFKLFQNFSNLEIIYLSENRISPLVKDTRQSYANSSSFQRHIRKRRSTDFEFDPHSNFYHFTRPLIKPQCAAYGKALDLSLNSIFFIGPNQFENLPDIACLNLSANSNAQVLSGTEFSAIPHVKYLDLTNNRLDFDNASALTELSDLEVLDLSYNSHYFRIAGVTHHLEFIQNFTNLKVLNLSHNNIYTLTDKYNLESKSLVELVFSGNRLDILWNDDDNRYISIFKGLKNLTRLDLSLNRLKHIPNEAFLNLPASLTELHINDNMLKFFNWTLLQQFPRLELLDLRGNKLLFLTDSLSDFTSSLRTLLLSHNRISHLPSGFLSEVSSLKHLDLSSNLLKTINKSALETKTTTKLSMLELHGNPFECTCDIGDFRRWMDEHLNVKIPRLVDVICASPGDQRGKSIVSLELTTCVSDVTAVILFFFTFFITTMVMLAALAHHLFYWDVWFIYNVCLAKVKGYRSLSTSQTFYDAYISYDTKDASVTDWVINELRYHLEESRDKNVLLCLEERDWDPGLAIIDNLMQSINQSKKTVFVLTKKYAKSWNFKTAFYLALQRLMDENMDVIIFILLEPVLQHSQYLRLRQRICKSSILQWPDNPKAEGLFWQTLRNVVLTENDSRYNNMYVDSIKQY
Description: TLR8 Stimulation Determined Using HEK-Blue Detection
This assay was designed for studying the stimulation of human TLR 8 protein in HEK-Blue hTLR8 tool cell line by monitoring the activation of NF-1B. HEK-Blue hTLR8 cells were obtained by co-transfection of the hTLR8 gene and an optimized secreted embryonic alkaline phosphatase (SEAP) reporter gene into HEK293 cells. The SEAP reporter gene was placed under the control of the IFN-β minimal promoter fused to five NF-κB and AP-1-binding sites. Stimulation with a TLR 8 ligand activates NF-κB and AP-1 which induce the expression of SEAP. Levels of SEAP can be easily determined with HEK-Blue Detection, a cell culture medium that allows for real-time detection of SEAP. HEK-Blue Detection contains all the nutrients necessary for cell growth and a specific SEAP color substrate. The hydrolysis of the substrate by SEAP produces a purple/blue color that can be measured with a spectrophotometer.
When growing to 50-80% confluency, HEK-Blue hTLR7/8 cells were plated into 96-well plate (costar 3599) at a density of 40000 cells/well. Then compounds were added with serial dilutions over 10 points with a 1 nM-10 uM final concentration range in 0.1% DMSO/HEK-Blue Detection. The plates were then incubated for 16 hr at 37° C. in 5% CO2. The optical density at 620-655 nm was read on BMG PHERAstar FSX instrument. The EC50 for each compound was determined by calculating the percentages of the maximum activation identified with Resiquimod or Motolimod.

human TLR7 = biological target: T2, human TLR7 (Homo sapiens, UniProt Q9NYK1); test: TLR7 stimulation determined using HEK-Blue Detection; format: cell-based; parameters: expressed in transfected cells; host or cells: HEK293 (HEK-Blue hTLR7); settings: HEK-Blue hTLR7 cells, HEK-Blue Detection (A77-A124), 16 hr, relative to Resiquimod maximum
T2 sequence (Q9NYK1 27-1049): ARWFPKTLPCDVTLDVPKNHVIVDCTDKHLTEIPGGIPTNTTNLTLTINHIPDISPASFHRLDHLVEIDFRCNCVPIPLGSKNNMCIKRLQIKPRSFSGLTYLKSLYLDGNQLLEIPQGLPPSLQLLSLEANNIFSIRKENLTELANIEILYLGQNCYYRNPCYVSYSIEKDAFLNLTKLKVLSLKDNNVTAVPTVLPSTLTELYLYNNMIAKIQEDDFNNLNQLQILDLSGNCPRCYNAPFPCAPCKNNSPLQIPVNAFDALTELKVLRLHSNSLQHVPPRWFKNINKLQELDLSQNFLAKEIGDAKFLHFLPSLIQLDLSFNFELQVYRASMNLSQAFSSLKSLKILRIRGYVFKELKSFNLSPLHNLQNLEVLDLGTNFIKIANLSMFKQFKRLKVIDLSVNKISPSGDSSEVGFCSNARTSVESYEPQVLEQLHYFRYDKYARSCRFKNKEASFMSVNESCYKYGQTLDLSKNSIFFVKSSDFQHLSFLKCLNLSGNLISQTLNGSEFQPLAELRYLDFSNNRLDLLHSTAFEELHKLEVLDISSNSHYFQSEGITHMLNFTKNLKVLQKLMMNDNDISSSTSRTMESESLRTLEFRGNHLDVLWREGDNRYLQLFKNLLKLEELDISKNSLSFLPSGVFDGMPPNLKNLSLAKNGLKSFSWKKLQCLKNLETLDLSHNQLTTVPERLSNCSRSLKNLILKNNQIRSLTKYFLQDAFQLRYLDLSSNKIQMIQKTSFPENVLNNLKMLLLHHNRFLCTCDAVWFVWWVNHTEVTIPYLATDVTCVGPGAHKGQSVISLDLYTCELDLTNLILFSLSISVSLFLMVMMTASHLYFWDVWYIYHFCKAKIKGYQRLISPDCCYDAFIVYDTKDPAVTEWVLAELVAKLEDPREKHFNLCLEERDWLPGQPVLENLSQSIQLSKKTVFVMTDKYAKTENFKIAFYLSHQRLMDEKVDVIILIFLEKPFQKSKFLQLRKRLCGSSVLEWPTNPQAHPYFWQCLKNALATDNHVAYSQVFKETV
Description: TLR7 Stimulation Determined Using HEK-Blue Detection
This assay was designed for studying the stimulation of human TLR7 protein in HELK-Blue hTLR7 tool cell line by monitoring the activation of NF-κB. HEK-Blue hTLR7 cells were obtained by co-transfection of the hTLR7 gene and an optimized secreted embryonic alkaline phosphatase (SLAP) reporter gene into HEK293 cells. The SLAP reporter gene was placed under the control of the IFN-β minimal promoter fused to five NF-κB and AP-1-binding sites. Stimulation with a TLR7 ligand activates NF-κB and AP-1 which induce the expression of SLAP. Levels of SLAP can be easily determined with HEK-Blue Detection, a cell culture medium that allows for real-time detection of SLAP. HLK-Blue Detection contains all the nutrients necessary for cell growth and a specific SLAP color substrate. The hydrolysis of the substrate by SLAP produces a purple/blue color that can be measured with a spectrophotometer.
When growing to 50-80%0 confluency, HLK-Blue hTLR7 cells were plated into 96-well plate (costar 3599) at a density of 40000 cells/well. Then compounds were added with serial dilutions over 10 points with a 0.04 nM-10 μM final concentration range in 0.1% DMSO/BLK-Blue Detection. The plates were then incubated for 16 hr at 37° C. in […] and vortex for 30s before measurement. The optical density at 620-655 nm was read on BMG PHLRAstar FSX instrument. The EC50 for each compound was determined by calculating the percentages of the maximum activation identified with Resiquimod.

Row | Compound | pEC50 (human TLR 8 protein) | pEC50 (human TLR7)
1 | CCC[C@H](C)Oc1nc(N)c2ncc(Cc3ccc(OCCNC)cc3)n2n1 [Compound A100, (S)-7-(4-(2-(methylamino)ethoxy)benzyl)-2-(pentan-2-yloxy)imidazo[2,1-f][1,2,4]triazin-4-amine] | 6.71 | 7.82
2 | CCCC(CCO)Oc1nc(N)c2ncc(Cc3ccc(OCCCNC)nc3)n2n1 (stereo not shown) [Compound A86, 3-((4-amino-7-((6-(3-(methylamino)propoxy)pyridin-3-yl)methyl)imidazo[2,1-f][1,2,4]triazin-2-yl)oxy)hexan-1-ol] | 6.27 | 7.24
3 | CC[C@H](C)Oc1nc(N)c2ncc(Cc3ccc(OCCNC)nc3)n2n1 [Compound A89, (S)-2-(sec-butoxy)-7-((6-(2-(methylamino)ethoxy)pyridin-3-yl)methyl)imidazo[2,1-f][1,2,4]triazin-4-amine] | 6.70 | 8.00
4 | CCCC(CCO)Oc1nc(N)c2ncc(Cc3ccc(CCNC)cc3)n2n1 (single isomer, unassigned) [Compound A120, (S or R)-3-((4-amino-7-(4-(2-(methylamino)ethyl)benzyl)imidazo[2,1-f][1,2,4]triazin-2-yl)oxy)hexan-1-ol] | 7.23 | 8.41
5 | CCC(CC)Oc1nc(N)c2ncc(Cc3ccc(OCCNC)nc3)n2n1 [Compound A83, 7-((6-(2-(methylamino)ethoxy)pyridin-3-yl)methyl)-2-(pentan-3-yloxy)imidazo[2,1-f][1,2,4]triazin-4-amine] | 6.34 | 7.37
6 | CCCC(CCO)Oc1nc(N)c2ncc(Cc3ccc(OCC(C)NC)nc3)n2n1 (single isomer, unassigned) [Compound A122, (R or S)-3-((4-amino-7-((6-(2-(methylamino)propoxy)pyridin-3-yl)methyl)imidazo[2,1-f][1,2,4]triazin-2-yl)oxy)hexan-1-ol] | 6.95 | 8.22

Continued, values first:

Row | pEC50 (human TLR 8 protein) | pEC50 (human TLR7) | Compound
7 | 8.15 | 9.14 | CCCC(CCO)Oc1nc(N)c2ncc(Cc3ccc(OCCNC)cc3F)n2n1 (single isomer, unassigned) [Compound A115, (R or S)-3-((4-amino-7-(2-fluoro-4-(2-(methylamino)ethoxy)benzyl)imidazo[2,1-f][1,2,4]triazin-2-yl)oxy)hexan-1-ol]
8 | 7.62 | 8.00 | CCCC(CCO)Oc1nc(N)c2ncc(Cc3cccc(OCCNC)c3)n2n1 (single isomer, unassigned) [Compound A104, (R or S)-3-((4-amino-7-(3-(2-(methylamino)ethoxy)benzyl)imidazo[2,1-f][1,2,4]triazin-2-yl)oxy)hexan-1-ol]
9 | 6.27 | 7.89 | CCCC(CCO)Oc1nc(N)c2ncc(Cc3ccc(OC)c(OCCNC)c3)n2n1 (single isomer, unassigned) [Compound A117, (R or S)-3-((4-amino-7-(4-methoxy-3-(2-(methylamino)ethoxy)benzyl)imidazo[2,1-f][1,2,4]triazin-2-yl)oxy)hexan-1-ol]
10 | 6.06 | 6.91 | CCCC(CCO)Oc1nc(N)c2ncc(Cc3ccc(OCCNC)cc3)n2n1 (single isomer, unassigned) [Compound A92, (R or S) 3-((4-amino-7-(4-(2-(methylamino)ethoxy)benzyl)imidazo[2,1-f][1,2,4]triazin-2-yl)oxy)hexan-1-ol]
11 | 7.29 | 7.42 | CCCC(CCO)Oc1nc(N)c2ncc(Cc3cc(OC)cc(OCCNC)c3)n2n1 (single isomer, unassigned) [Compound A116, (R or S)-3-((4-amino-7-(3-methoxy-5-(2-(methylamino)ethoxy)benzyl)imidazo[2,1-f][1,2,4]triazin-2-yl)oxy)hexan-1-ol]
12 | 6.98 | 8.92 | CCCC(CCO)Oc1nc(N)c2ncc(Cc3ccc(OCCNC)c4ccccc34)n2n1 (single isomer, unassigned) [Compound A124, (R or S)-3-((4-amino-7-((4-(2-(methylamino)ethoxy)naphthalen-1-yl)methyl)imidazo[2,1-f][1,2,4]triazin-2-yl)oxy)hexan-1-ol]
13 | 6.79 | 7.96 | CCCC(CCO)Oc1nc(N)c2ncc(Cc3ccc(OCCNC)c(OC)c3)n2n1 (stereo not shown) [Compound A98, 3-((4-amino-7-(3-methoxy-4-(2-(methylamino)ethoxy)benzyl)imidazo[2,1-f][1,2,4]triazin-2-yl)oxy)hexan-1-ol]
14 | 7.33 | 8.72 | CCCC(CCO)Oc1nc(N)c2ncc(Cc3ccc(OCCNC)c(F)c3F)n2n1 (single isomer, unassigned) [Compound A111, (R or S)-3-((4-amino-7-(2,3-difluoro-4-(2-(methylamino)ethoxy)benzyl)imidazo[2,1-f][1,2,4]triazin-2-yl)oxy)hexan-1-ol]
